This passage reports IC50 results from patent EP4796125A1, “TREATMENT OF PATIENT WITH NEGATIVE P53 GENE MUTATION, POSITIVE KRAS GENE MUTATION AND POSITIVE BRCA MUTATION” (Ascentawits Pharmaceuticals, Ltd., priority 2023, dated 2025).

This test concerns H460 WT (H460 wild-type cells). Nature of the test: In vitro proliferation under normoxia (CTG, 72 hours), Example 26. The test is classed as cell-based. To be noted: Homo sapiens, NCI-H460, Table 21, AST-3424 alone or + 3 µM AST-3021. The procedure:
• 1) H460 cell suspension was added to a 96-well plate (100 µL per well), with a cell density of 2000 cells/well. • 2) The cells were cultured overnight in a 37°C, 5% CO2 incubator. • 3) Compound Treatment
Monotherapy: 24 hours after cell plating, each well was supplemented with 99.5 µL of growth medium. Then, 0.5 µL of test compounds at different concentrations was added. The plate was gently shaken to ensure even mixing, and then placed in a 37°C, 5% CO2 incubator.
Combination therapy: 24 hours after cell plating, each well was supplemented with 99 µL of growth medium. Then, 0.5 µL of the combination compound Nutlin-3 was added. The plate was gently shaken to ensure even mixing, and then placed in an incubator for 2 hours. Then, 0.5 µL of test compounds at different concentrations was added. […]

A word on the IC50: it is the midpoint of a concentration-inhibition curve. With `C[C@H](OP(=O)(N1CC1)N1CC1)c1ccc([N+](=O)[O-])c(Oc2cccc(C(=O)N(C)C)c2)c1` [AST-3424], the IC50 came out at 0.23 nM.
